Data reported in US10828290B2, “Thiazolecarboxamides and pyridinecarboxamide compounds useful as pim kinase inhibitors” (Incyte Corporation, priority 2013, dated 2020).
Where two headings read alike, the source gives them in different places.

Assays:
Format in all cases: biochemical
[1] = target: Pim-2 (Homo sapiens (Human), UniProt Q9P1W9); test: Pim-2 kinase assay
Procedure: Pim-2 kinase assay—20 μL reactions were run in white 384 well polystyrene plates dotted with 0.8 μL compound/DMSO in the assay buffer (50 mM Tris, pH 7.5, 0.01% Tween-20, 5 mM MgCl2, 0.01% BSA, 5 mM DTT), containing 0.05 μM Fluorescein-labeled CREBtide peptide substrate (Invitrogen PV3508), 1 mM ATP, and 1 nM enzyme (Invitrogen PV3649) for 2 h at 25° C. Reactions were stopped by addition of 10 μL TR-FRET Dilution Buffer (Invitrogen PV3574) with 30 mM EDTA and 1.5 nM LanthaScreen Tb-CREB pSer133 antibody (Invitrogen PV3566). After 30 min. incubation at room temperature, plates were read on a PHERAstar FS plate reader (BMG Labtech).
Although the above in vitro assays are conducted at 1 mM ATP compounds can also be evaluated for potency and in vitro activity against PIM targets utilizing Km conditions, where the concentration of ATP is set to the Km value and the assay is more sensitive to PIM inhibition activity.

[2] = target: Pim-1 (Homo sapiens (Human), UniProt P11309); test: Pim-1 kinase assay; conditions: 1 mM ATP; class symbols; read-out: Pim1 IC50
Procedure: Supplementation of the STOP buffer with beads and stopping the reactions were done under reduced light. Prior to the stopping reactions STOP buffer with beads was pre-incubated for 1 h in the dark at room temperature. After stopping the reactions, plates were incubated for 1 h in the dark at room temperature before reading on a PHERAstar FS plate reader (BMG Labtech) under reduced light.

[3] = target: Pim-3 (Homo sapiens (Human), UniProt Q86V86); test: Pim-3 kinase assay; conditions: 1 mM ATP; class symbols; read-out: Pim3 IC50
Procedure: Pim-1 and Pim-3 kinase assays—20 μL reactions were run in white 384 well polystyrene plates dotted with […] in the assay buffer (50 mM Tris, pH 7.5, 0.01% Tween-20, 5 mM MgCl2, 0.01% BSA, 5 mM DTT), containing 0.05 μM Biotin-labeled BAD peptide substrate (AnaSpec 62269), 1 mM ATP, and 2.5 pM (Pim-1, Invitrogen PV3503) or 1.25 pM (Pim-3, Millipore 14-738) enzyme for 1 h at 25° C. Reactions were stopped by addition of 10 μL STOP Buffer (150 mM Tris, pH=7.5, 150 mM NaCl, 75 mM EDTA, 0.01% Tween-20, 0.3% BSA) supplemented with Phospho-Bad (Ser112) Antibody (Cell Signaling 9291) diluted 666-fold, and Streptavidin donor beads (PerkinElmer 6760002) along with Protein-A acceptor beads (PerkinElmer 6760137) at 15 μg/mL each. Supplementation of the STOP buffer with beads and stopping the reactions were done under reduced light. Prior to the stopping reactions STOP buffer with beads was pre-incubated for 1 h in the dark at room temperature. After stopping the reactions, plates were incubated for 1 h in the dark at room temperature before reading on a PHERAstar FS plate reader (BMG Labtech) under reduced light.

Sequence of Pim-2 (Q9P1W9 whole entry): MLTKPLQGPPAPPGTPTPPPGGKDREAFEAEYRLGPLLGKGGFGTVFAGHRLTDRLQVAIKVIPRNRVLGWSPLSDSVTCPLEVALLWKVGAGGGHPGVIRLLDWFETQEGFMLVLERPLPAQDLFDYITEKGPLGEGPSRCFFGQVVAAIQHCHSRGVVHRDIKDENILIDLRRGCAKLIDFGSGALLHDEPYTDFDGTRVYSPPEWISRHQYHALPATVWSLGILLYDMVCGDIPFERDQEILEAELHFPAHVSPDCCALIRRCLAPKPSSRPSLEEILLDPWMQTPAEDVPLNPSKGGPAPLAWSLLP
Sequence of Pim-1 (P11309 whole entry): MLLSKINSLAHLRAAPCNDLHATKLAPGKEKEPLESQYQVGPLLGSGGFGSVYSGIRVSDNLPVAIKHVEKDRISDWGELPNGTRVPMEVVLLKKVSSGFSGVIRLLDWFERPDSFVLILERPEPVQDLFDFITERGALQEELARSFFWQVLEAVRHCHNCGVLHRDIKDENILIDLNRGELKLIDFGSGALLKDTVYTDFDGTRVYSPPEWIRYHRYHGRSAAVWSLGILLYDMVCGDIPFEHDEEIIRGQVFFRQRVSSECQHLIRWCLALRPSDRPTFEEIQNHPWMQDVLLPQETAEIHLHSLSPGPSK

In the case of `N[C@H]1CCCN(c2c(NC(=O)c3csc(-c4c(F)cccc4F)n3)cnc3ccccc23)C1` [Example 2, N-{4-[(3S)-3-Aminopiperidin-1-yl]quinolin-3-yl}-2-(2,6-difluorophenyl)-1,3-thiazole-4-carboxamide], the IC50 ([1]; Km ATP concentration rather than 1 mM, read-out: Pim2 IC50 at Km ATP concentration) is reported as 100 to 1000 nM.

In the case of `C[C@H]1CN(c2c(NC(=O)c3ccc(F)c(-c4c(F)cccc4F)n3)cnc3c2CCC3O)C[C@@H](N)[C@@H]1O` (mixture of isomers) [Example 37 (mixture of diastereoisomers), N-{4-[(3R,4R,5S)-3-Amino-4-hydroxy-5-methylpiperidin-1-yl]-7-hydroxy-6,7-dihydro-5H-cyclopenta[b]pyridin-3-yl}-6-(2,6-difluorophenyl)-5-fluoropyridine-2-carboxamide], the IC50 [2] is reported as ≤ 100 nM, the IC50 [3] is reported as ≤ 100 nM and the IC50 ([1]; 1 mM ATP, class symbols, read-out: Pim2 IC50) is reported as ≤ 100 nM.
